Data taken from ChEMBL document CHEMBL2010711, “Synthesis and comparative evaluation of 4-oxa- and 4-aza-podophyllotoxins as antiproliferative microtubule destabilizing agents” (Bioorg Med Chem Lett, 2012).
Active and inactive are the calls of the source.

Experiments:
Paracentrotus lividus [1] = test: Antimitotic activity against Paracentrotus lividus embryo assessed as cleavage alteration at 2 fold less effective threshold concentration after 2.5 to 6 hrs; format: functional, organism-based
Paracentrotus lividus [2] = test: Antimitotic activity against Paracentrotus lividus embryo assessed as concentration required to cause 100% cleavage arrest after 2.5 to 6 hrs; format: functional
Paracentrotus lividus [3] = test: Microtubule destabilizing activity in Paracentrotus lividus embryo assessed as concentration required to cause 100% embryo spinning after 15 mins to 20 hrs; format: functional
Paracentrotus lividus [4] = test: Antimitotic activity against Paracentrotus lividus embryo assessed as cleavage arrest at 2 fold less effective threshold concentration after 2.5 to 6 hrs; format: functional, organism-based
Paracentrotus lividus [5] = test: Microtubule destabilizing activity in Paracentrotus lividus embryo assessed as embryo spinning at 2 fold less effective threshold concentration after 15 mins to 20 hrs; format: functional, organism-based
Paracentrotus lividus [6] = test: Antimitotic activity against Paracentrotus lividus embryo assessed as concentration required to cause 100% cleavage alteration after 2.5 to 6 hrs; format: functional

| SMILES | Activity (Paracentrotus lividus [1]) | EC (Paracentrotus lividus [2]) | EC (Paracentrotus lividus [3]) | Activity (Paracentrotus lividus [4]) | Activity (Paracentrotus lividus [5]) | EC (Paracentrotus lividus [6]) |
| --- | --- | --- | --- | --- | --- | --- |
| COc1cc(OC)cc(C2C3=C(COC3=O)Oc3cc(OC)ccc32)c1 (stereo not drawn) | inactive | 5 nM | 0.05 µM | inactive | inactive | 1 nM |
| COc1ccc2c(c1)OC1=C(C(=O)OC1)C2c1cc(OC)c2c(c1OC)OCO2 (stereo not drawn) | inactive | 500 nM | 4 µM | inactive | inactive | 100 nM |
| COc1cc2c(c(OC)c1OC)C(c1ccccc1)C1=C(COC1=O)O2 (stereo not drawn) | inactive | >4000 nM | >4 µM | inactive | inactive | 2000 nM |
